From patent publication US12728181B2, “Solution blow spun polymer constructs, compositions and methods of fabrications and uses relating thereto” (University of Maryland, College Park, priority 2019, dated 2026)

What was measured:
[1] = system: small model bacterial inoculation; details: cited from earlier work
fibroblasts = details: cited from earlier work
keratinocytes = details: cited from earlier work
mouse = details: in vivo, ip
Text: To determine the potential immune response to the fast-degrading components of the PSTA, we employed an intraperitoneal space implantation mouse model used to evaluate fibrosis (Doloff, J. C. et al. (2017) Colony Stimulating Factor-1 Receptor Is a Central Component of the Foreign Body Response to Biomaterial Implants in Rodents and Non-Human Primates, Nat. Mater. 16(6):671).

Row | fibrotic adhesions to the fat pads (mouse) | Molecule | minimum inhibitory concentration (MIC) ([1]; inoculation of the same size) | minimum bactericidal concentration (MBC) ([1]; small model bacterial inoculation) | 24 hour cytotoxic limit (FCC) (fibroblasts) | 24 hour cytotoxic limit (KCC) (keratinocytes) [µM]
1 |  | [Ag+] [Ag^+] | about 5 μM | approximately 20 μM | approximately 50 μM | 500
2 | no adhesions to the fat pad | poly(lactide-co-caprolactone) [LMW PLCL] |  |  |  | 
